Reference: US6927226B2, “Antidepressant azaheterocyclymethyl derivatives of 7,8-dihydro-3H-6,9-dioxa-1,3-diazacyclopenta[a]naphthalene” (Wyeth, priority 2001, dated 2005)
Where a name gives a salt, the structure may show the parent alone. Read-outs that look alike come from different tables or passages of the source. Each block holds one molecule with its values, some of them ahead of it.

Columns and labels:
human 5-HT1A receptors = molecular target: T1, human 5-HT1A receptors (Homo sapiens, UniProt P08908); test: [3H] 8-OHDPAT displacement from the 5-HT1A receptor (transfected CHO cells); format: binding
T1 construct: expressed in transfected cells; host or cells: CHO cells, stably transfected
T1 sequence (P08908 1-422): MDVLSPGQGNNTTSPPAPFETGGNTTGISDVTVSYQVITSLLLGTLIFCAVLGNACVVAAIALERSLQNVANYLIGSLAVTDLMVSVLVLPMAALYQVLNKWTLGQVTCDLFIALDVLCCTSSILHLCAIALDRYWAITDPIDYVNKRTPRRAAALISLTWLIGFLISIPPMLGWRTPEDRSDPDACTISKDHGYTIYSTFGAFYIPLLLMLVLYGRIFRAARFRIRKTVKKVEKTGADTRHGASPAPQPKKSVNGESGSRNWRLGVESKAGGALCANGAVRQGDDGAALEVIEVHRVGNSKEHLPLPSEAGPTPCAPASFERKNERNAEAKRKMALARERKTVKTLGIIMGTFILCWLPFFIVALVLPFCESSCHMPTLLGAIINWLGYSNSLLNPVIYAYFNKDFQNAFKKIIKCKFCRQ
From the text: High affinity for the serotonin 5-HT1A receptor was established by testing the claimed compound's ability to displace [^3H] 8-OHDPAT (dipropylaminotetralin) from the 5-HT1A serotonin receptor following a modification of the procedure of Hall et al., J. Neurochem. 44, 1685 (1985) which utilizes CHO cells stably transfected with human 5-HT1A receptors.

[1] = molecular target: T2, cloned human 5-HT1A receptors (Homo sapiens, UniProt P08908); test: 35S-GTPγS binding assay, antagonist activity at 5-HT1A receptors; format: biochemical; conditions: reversal of the effects of the standard agonist 8-OHDPAT; for IC50: membranes with cloned human 5-HT1A receptors, read-out: 5-HT1A Function IC50
T2 construct: expressed in transfected cells
T2 sequence (P08908 1-422): T1 sequence (P08908 1-422)
Method: Antagonist activity at 5-HT1A receptors was established by using a ^35S-GTPγS binding assay similar to that used by Lazareno and Birdsall (Br. J. Pharmacol. 109: 1120, 1993), in which the test compound's ability to affect the binding of ^35S-GTPγS to membranes containing cloned human 5-HT1A receptors was determined. Agonists produce an increase in binding whereas antagonists produce no increase but rather reverse the effects of the standard agonist 8-OHDPAT. The test compound's maximum inhibitory effect is represented as the Imax, while its potency is defined by the IC50.

serotonin transporter = molecular target: T3, serotonin transporter (Rattus norvegicus, UniProt P31652); test: 3H-paroxetine displacement, affinity for the serotonin transporter; format: binding
T3 construct: displace ^3H-paroxetine from male rat frontal cortical membranes; from tissue; host or cells: male rat frontal cortex membranes
T3 sequence (P31652 whole entry): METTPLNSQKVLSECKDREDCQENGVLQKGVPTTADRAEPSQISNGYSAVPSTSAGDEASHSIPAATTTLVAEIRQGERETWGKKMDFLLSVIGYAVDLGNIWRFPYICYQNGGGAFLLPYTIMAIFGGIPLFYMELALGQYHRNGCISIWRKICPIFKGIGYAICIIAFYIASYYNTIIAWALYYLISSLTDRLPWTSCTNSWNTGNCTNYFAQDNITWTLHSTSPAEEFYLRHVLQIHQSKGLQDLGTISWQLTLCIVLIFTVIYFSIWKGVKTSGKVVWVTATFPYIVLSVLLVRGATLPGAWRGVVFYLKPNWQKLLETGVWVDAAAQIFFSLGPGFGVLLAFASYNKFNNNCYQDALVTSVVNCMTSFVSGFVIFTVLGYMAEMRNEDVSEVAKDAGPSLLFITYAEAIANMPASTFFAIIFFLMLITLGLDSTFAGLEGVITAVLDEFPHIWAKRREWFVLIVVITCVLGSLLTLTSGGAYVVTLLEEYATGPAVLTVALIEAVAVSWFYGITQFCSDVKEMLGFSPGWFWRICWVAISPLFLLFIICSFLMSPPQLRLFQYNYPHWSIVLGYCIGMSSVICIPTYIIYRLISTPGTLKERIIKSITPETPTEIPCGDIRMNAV

[2] = displacement of [3H] 8-OHDPAT, CHO cells stably transfected with human 5-HT1A receptors, read-out: 5-HT1A Receptor Affinity KI
[3] = displacement of 3H-paroxetine, male rat frontal cortical membranes, read-out: 5-HT Transporter Affinity KI

Compound: Cc1nc2c3c(ccc2[nH]1)OCC(CN1CC=C(c2c[nH]c4ccccc24)CC1)O3 (stereo not drawn) [Example 4, 8-[4-(1H-Indol-3-yl)-3,6-dihydro-2H-pyridin-1-ylmethyl]-2-methyl-7,8-dihydro-3H-6,9-dioxa-1,3-diaza-cyclopenta[a]naphthalene]
- Ki (human 5-HT1A receptors): 1.58 nM
- 5-HT1A Function (Imax), maximum inhibitory effect [1]: (100)
- IC50 [1]: 10 nM
- Ki (serotonin transporter): 0.41 nM

Compound: Fc1ccc2[nH]cc(C3=CCN(CC4COc5ccc6[nH]c(C(F)(F)F)nc6c5O4)CC3)c2c1 (stereo not drawn) [Example 1, 8-[4-(5-Fluoro-1H-indol-3-yl)-3,6-dihydro-2H-pyridin-1-ylmethyl]-2-trifluoromethyl-7,8-dihydro-3H-6,9-dioxa-1,3-diaza-cyclopenta[a]naphthalene]
- Ki (human 5-HT1A receptors): 3.07 nM
- 5-HT1A Function (Imax), maximum inhibitory effect [1]: (100)
- IC50 [1]: 93.5 nM
- Ki (serotonin transporter): 1.04 nM

Compound: Fc1cccc2c(C3=CCN(CC4COc5ccc6[nH]c(C(F)(F)F)nc6c5O4)CC3)c[nH]c12 (stereo not drawn) [Example 7, 8-[4-(7-Fluoro-1H-indol-3-yl)-3,6-dihydro-2H-pyridin-1-ylmethyl]-2-trifluoromethyl-7,8-dihydro-3H-6,9-dioxa-1,3-diaza-cyclopenta[a]naphthalene]
- Ki (human 5-HT1A receptors): 0.81 nM
- 5-HT1A Function (Imax), maximum inhibitory effect [1]: (89.1)
- IC50 [1]: 27.4 nM
- Ki (serotonin transporter): 0.69 nM

Compound: Fc1ccc2c(C3=CCN(CC4COc5ccc6[nH]c(C(F)(F)F)nc6c5O4)CC3)c[nH]c2c1 (stereo not drawn) (as salt: fumarate) (hydrate or solvate) [Example 3, 8-[4-(6-Fluoro-1H-indol-3-yl)-3,6-dihydro-2H-pyridin-1-ylmethyl]-2-trifluoromethyl-7,8-dihydro-3H-6,9-dioxa-1,3-diaza-cyclopenta[a]naphthalene]
- melting point: 215 to 220 °C

Compound: Fc1cccc2c(C3=CCN(CC4COc5ccc6[nH]c(C(F)(F)F)nc6c5O4)CC3)c[nH]c12 (stereo not drawn) (as salt: fumarate) [Example 7, 8-[4-(7-Fluoro-1H-indol-3-yl)-3,6-dihydro-2H-pyridin-1-ylmethyl]-2-trifluoromethyl-7,8-dihydro-3H-6,9-dioxa-1,3-diaza-cyclopenta[a]naphthalene]
- melting point: 239 to 240 °C

Compound: CCc1nc2c3c(ccc2[nH]1)OCC(CN1CC=C(c2c[nH]c4ccccc24)CC1)O3 (stereo not drawn) [Example 6, 8-[4-(1H-Indol-3-yl)-3,6-dihydro-2H-pyridin-1-ylmethyl]-2-ethyl-7,8-dihydro-3H-6,9-dioxa-1,3-diaza-cyclopenta[a]naphthalene]
- Ki (human 5-HT1A receptors): 1.34 nM
- 5-HT1A Function (Imax), maximum inhibitory effect [1]: (35.0)
- IC50 [1]: 36 nM
- Ki (serotonin transporter): 0.42 nM

Compound: Cc1nc2ccc3c(c2n1C)OC(CN1CC=C(c2c[nH]c4ccccc24)CC1)CO3 (stereo not drawn) [Example 5, 8-[4-(1H-Indol-3-yl)-3,6-dihydro-2H-pyridin-1-ylmethyl]-1,2-dimethyl-7,8-dihydro-3H-6,9-dioxa-1,3-diaza-cyclopenta[a]naphthalene]
- Ki (human 5-HT1A receptors; [2]): 52 nM
- 5-HT1A Function (Imax), maximum inhibitory effect [1]: (100)
- IC50 [1]: 6520 nM
- Ki (serotonin transporter; [3]): 2 nM

Compound: Fc1ccc2c(C3=CCN(CC4COc5ccc6[nH]c(C(F)(F)F)nc6c5O4)CC3)c[nH]c2c1 (stereo not drawn) [Example 3, 8-[4-(6-Fluoro-1H-indol-3-yl)-3,6-dihydro-2H-pyridin-1-ylmethyl]-2-trifluoromethyl-7,8-dihydro-3H-6,9-dioxa-1,3-diaza-cyclopenta[a]naphthalene]
- Ki (human 5-HT1A receptors): 2.67 nM
- 5-HT1A Function (Imax), maximum inhibitory effect [1]: (66.5)
- IC50 [1]: 22 nM
- Ki (serotonin transporter): 1.12 nM

Compound: Fc1ccc2[nH]cc(C3=CCN(CC4COc5ccc6[nH]c(C(F)(F)F)nc6c5O4)CC3)c2c1 (stereo not drawn) (as salt: fumarate) [Example 1, 8-[4-(5-Fluoro-1H-indol-3-yl)-3,6-dihydro-2H-pyridin-1-ylmethyl]-2-trifluoromethyl-7,8-dihydro-3H-6,9-dioxa-1,3-diaza-cyclopenta[a]naphthalene]
- melting point: 236 to 238 °C

Compound: CCc1nc2c3c(ccc2[nH]1)OCC(CN1CC=C(c2c[nH]c4ccccc24)CC1)O3 (stereo not drawn) (as salt: fumarate) [Example 6, 8-[4-(1H-Indol-3-yl)-3,6-dihydro-2H-pyridin-1-ylmethyl]-2-ethyl-7,8-dihydro-3H-6,9-dioxa-1,3-diaza-cyclopenta[a]naphthalene]
- melting point: 231 to 232 °C

Compound: FC(F)(F)c1nc2c3c(ccc2[nH]1)OCC(CN1CC=C(c2c[nH]c4ccccc24)CC1)O3 (stereo not drawn) (as salt: fumarate) [Example 2, 8-[4-(1H-Indol-3-yl)-3,6-dihydro-2H-pyridin-1-ylmethyl]-2-trifluoromethyl-7,8-dihydro-3H-6,9-dioxa-1,3-diaza-cyclopenta[a]naphthalene]
- melting point: 231 to 233 °C

Compound: FC(F)(F)c1nc2c3c(ccc2[nH]1)OCC(CN1CC=C(c2c[nH]c4ccccc24)CC1)O3 (stereo not drawn) [Example 2, 8-[4-(1H-Indol-3-yl)-3,6-dihydro-2H-pyridin-1-ylmethyl]-2-trifluoromethyl-7,8-dihydro-3H-6,9-dioxa-1,3-diaza-cyclopenta[a]naphthalene]
- Ki (human 5-HT1A receptors): 1.76 nM
- 5-HT1A Function (Imax), maximum inhibitory effect [1]: (82.5)
- IC50 [1]: 29 nM
- Ki (serotonin transporter): 1.05 nM

- melting point: 238 to 239 °C
Compound: FC(F)(F)C(F)(F)c1nc2c3c(ccc2[nH]1)OCC(CN1CC=C(c2c[nH]c4ccccc24)CC1)O3 (stereo not drawn) (as salt: fumarate) [Example 8, 8-[4-(1H-Indol-3-yl)-3,6-dihydro-2H-pyridin-1-ylmethyl]-2-pentafluoroethyl-7,8-dihydro-3H-6,9-dioxa-1,3-diaza-cyclopenta[a]naphthalene]

Compound: Cc1nc2c3c(ccc2[nH]1)OCC(CN1CC=C(c2c[nH]c4ccccc24)CC1)O3 (stereo not drawn) (as salt: fumarate) (hydrate or solvate) [Example 4, 8-[4-(1H-Indol-3-yl)-3,6-dihydro-2H-pyridin-1-ylmethyl]-2-methyl-7,8-dihydro-3H-6,9-dioxa-1,3-diaza-cyclopenta[a]naphthalene]
- melting point: 219 to 222 °C

- Ki (human 5-HT1A receptors; [2]): 1.88 nM
- 5-HT1A Function (Imax), maximum inhibitory effect [1]: (91.1)
- IC50 [1]: 43.6 nM
- Ki (serotonin transporter; [3]): 1.25 nM
Compound: FC(F)(F)C(F)(F)c1nc2c3c(ccc2[nH]1)OCC(CN1CC=C(c2c[nH]c4ccccc24)CC1)O3 (stereo not drawn) [Example 8, 8-[4-(1H-Indol-3-yl)-3,6-dihydro-2H-pyridin-1-ylmethyl]-2-pentafluoroethyl-7,8-dihydro-3H-6,9-dioxa-1,3-diaza-cyclopenta[a]naphthalene]
